Experimental data as given in article PMC3509056 (The FASEB Journal, 2012).
Positions count from the first letter of the chain named.

How the values were obtained:
hFFA2 [1] = target: T1, hFFA2 (Homo sapiens, UniProt O15552); assay: beta-arrestin-2 BRET recruitment; type: cell-based
T1 sequence (O15552 1-330): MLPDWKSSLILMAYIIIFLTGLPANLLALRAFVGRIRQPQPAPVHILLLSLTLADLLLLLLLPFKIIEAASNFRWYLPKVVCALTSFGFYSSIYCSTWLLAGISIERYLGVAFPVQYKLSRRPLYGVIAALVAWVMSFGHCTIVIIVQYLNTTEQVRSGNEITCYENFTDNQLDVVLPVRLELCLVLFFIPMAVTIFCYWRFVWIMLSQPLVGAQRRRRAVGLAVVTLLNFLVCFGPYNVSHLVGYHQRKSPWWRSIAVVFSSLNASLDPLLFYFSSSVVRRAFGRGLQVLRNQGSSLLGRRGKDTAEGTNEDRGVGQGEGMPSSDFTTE

bFFA2 = target: T2, bFFA2 (Bos taurus, UniProt A0ACM8QIU6); assay: beta-arrestin-2 BRET recruitment; type: cell-based
T2 sequence (A0ACM8QIU6 1-329): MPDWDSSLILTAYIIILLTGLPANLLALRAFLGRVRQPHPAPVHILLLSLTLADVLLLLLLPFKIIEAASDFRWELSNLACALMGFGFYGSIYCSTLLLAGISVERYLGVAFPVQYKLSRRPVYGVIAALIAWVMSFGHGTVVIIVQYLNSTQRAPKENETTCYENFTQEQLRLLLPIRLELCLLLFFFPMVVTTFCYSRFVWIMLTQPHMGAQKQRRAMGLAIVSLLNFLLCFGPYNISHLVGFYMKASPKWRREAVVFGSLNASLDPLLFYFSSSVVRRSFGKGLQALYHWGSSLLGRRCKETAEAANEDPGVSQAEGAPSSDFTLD

hFFA3 = target: T3, hFFA3 (Homo sapiens, UniProt O14843); assay: […]GTPγS incorporation, membranes; type: biochemical
T3 sequence (O14843 1-346): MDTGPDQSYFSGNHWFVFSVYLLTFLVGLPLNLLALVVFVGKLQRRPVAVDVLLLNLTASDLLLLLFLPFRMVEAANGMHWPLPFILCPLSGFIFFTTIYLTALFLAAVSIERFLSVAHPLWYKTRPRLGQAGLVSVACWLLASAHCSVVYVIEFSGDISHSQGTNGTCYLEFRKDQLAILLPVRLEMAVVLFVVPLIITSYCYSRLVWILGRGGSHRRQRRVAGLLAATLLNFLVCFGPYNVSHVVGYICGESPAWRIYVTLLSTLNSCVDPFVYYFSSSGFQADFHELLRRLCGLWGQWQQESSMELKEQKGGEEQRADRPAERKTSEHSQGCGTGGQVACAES

bFFA3 = target: T4, bFFA3 (Bos taurus, UniProt A0ACM8QIV1); assay: […]GTPγS incorporation, membranes; type: biochemical
T4 sequence (A0ACM8QIV1 1-326): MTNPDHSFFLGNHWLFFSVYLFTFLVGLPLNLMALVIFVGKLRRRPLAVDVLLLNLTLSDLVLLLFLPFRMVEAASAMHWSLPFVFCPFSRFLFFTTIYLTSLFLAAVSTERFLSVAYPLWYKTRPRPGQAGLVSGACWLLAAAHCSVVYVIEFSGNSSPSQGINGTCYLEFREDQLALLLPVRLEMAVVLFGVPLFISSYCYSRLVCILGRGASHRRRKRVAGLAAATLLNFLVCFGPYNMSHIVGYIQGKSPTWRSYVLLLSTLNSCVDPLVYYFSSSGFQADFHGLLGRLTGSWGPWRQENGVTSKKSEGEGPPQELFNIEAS

hFFA2 [2] = target: T5, hFFA2 (Homo sapiens, UniProt O15552, C141G); assay: beta-arrestin-2 BRET recruitment; type: cell-based
T5 sequence (O15552 1-330 C141G): T1 sequence (O15552 1-330) with C141G

hFFA2 [3] = target: T6, hFFA2 (Homo sapiens, UniProt O15552, C141G/H242Q); assay: […]GTPγS incorporation, membranes; type: biochemical
T6 sequence (O15552 1-330 C141G/H242Q): T1 sequence (O15552 1-330) with C141G, H242Q

Structure (SMILES)	EC50 (hFFA2 [1]) [µM]	EC50 (bFFA2) [µM]	EC50 (hFFA3) [µM]	EC50 (bFFA3) [µM]	EC50 (hFFA2 [2]) [µM]	EC50 (hFFA2 [3]) [µM]
O=CO [C1, formic acid]	2510	> 10000	> 10000	> 10000	–	–
CC(=O)O [C2, acetic acid]	1000	2040	7590	4370	–	–
CCC(=O)O [C3, propionic acid]	–	347 ± 7.01	200	155	–	–
CCCC(=O)O [C4, butyric acid]	1480	69.2	251	263	–	–
CCCCC(=O)O [C5, valeric acid]	7080	42.7	36.3	123	–	–
CCCCCC(=O)O [C6, caproic acid]	> 10000	20.9	204	126	24	–
CCCCCCC(=O)O [C7, heptanoic acid]	> 10000	155	69.2	158	105	–
CCCCCCCC(=O)O [C8, caprylic acid]	> 10000	617	> 10000	> 10000	1070	–
CCCCCCCCC(=O)O [C9, pelargonic acid]	> 10000	3390	> 10000	> 10000	–	–
CC/C=C/C(=O)O [compound 22, trans-2-pentenoic acid]	–	5.25	–	–	33.1	–
CCC/C=C/C(=O)O [compound 23, trans-2-hexenoic acid]	> 10000	3.98	–	–	3.24	–
C=CC=CC(=O)O [compound 24, 2,4-pentadienoic acid]	–	10	–	–	22.9	–
C/C=C/C=C/C(=O)O [compound 25, 2,4-hexadienoic acid]	> 10000	4.27	–	–	4.57	3.47
CC(=CC(=O)O)C(F)(F)F [compound 26, 4,4,4-trifluoro-3-methyl-2-butenoic acid]	> 10000	12.9	–	–	257	–
O=C(O)C1=CCCC1 [compound 27, 1-cyclopentenecarboxylic acid]	> 10000	11	–	–	83.2	–
O=C(O)/C=C/c1ccccc1 [compound 28, trans-cinnamic acid]	> 10000	174	–	–	389	–
O=C(O)C1=CCCCC1 [compound 29, 1-cyclohexene-1-carboxylic acid]	> 10000	60.3	–	–	158	–
